Measured values reported in the supplement of paper PMC7840683.
± gives the standard deviation of the averaged measurements.

Test system: HepaRG
Test: LDH release cytotoxicity, % of total lysis control; higher = more cytotoxic
Details: 48 h
How it was run: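 Eight-point half-log series of test chemicals, the highest at 100 µM, were given in duplicate for 48 h to single-lot HepaRG cells on collagen I-coated 96-well plates in serum-free induction medium with 0.5% DMSO. A Tecan Safire read resorufin fluorescence from CytoTox-ONE as a measure of LDH in 50 µL spent medium, with 0.1% Triton X in total lysis wells. Percent cytotoxicity was normalized to on-plate vehicle and total lysis controls and averaged over the duplicates.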

`CCCCCCCCCCCCc1cccc(S(=O)(=O)O)c1` [Dodecylbenzene sulfonate triethanolamine(1:1)] gave an LDH release cytotoxicity (0.02846 µM) of -1.49 ± 0.8%, an LDH release cytotoxicity (0.09 µM) of -0.848 ± 1.3% and an LDH release cytotoxicity (0.284605 µM) of -1.53 ± 0.58%. The LDH release cytotoxicity (0.9 µM) was -1.22 ± 0.78%, the LDH release cytotoxicity (2.84605 µM) was -0.852 ± 0.19% and the LDH release cytotoxicity (9 µM) was -1.11 ± 0.016%. It also gave an LDH release cytotoxicity (28.4605 µM) of -0.984 ± 0.56% and an LDH release cytotoxicity (90 µM) of 5.69 ± 0.45%.

`CCOC(=O)COc1cc(-c2nn(C)c(OC(F)F)c2Cl)c(F)cc1Cl` [Pyraflufen-ethyl] gave an LDH release cytotoxicity (0.03162 µM) of 0.0981 ± 1.6%, an LDH release cytotoxicity (0.1 µM) of -2.14 ± 0.14% and an LDH release cytotoxicity (0.3162278 µM) of -0.894 ± 0.076%. The LDH release cytotoxicity (1 µM) was -0.96 ± 1.1%, the LDH release cytotoxicity (3.16228 µM) was -1.01 ± 0.6% and the LDH release cytotoxicity (10 µM) was -0.751 ± 0.049%. It also gave an LDH release cytotoxicity (31.6228 µM) of 0.45 ± 0.72% and an LDH release cytotoxicity (100 µM) of 1.13 ± 1.6%.

With `Cc1occc1C(=O)Nc1ccc(C(=O)N2CCC(F)(F)/C(=C\C(=O)N3CCC(N4CCCCC4)CC3)c3ccccc32)cc1` [YM218] the LDH release cytotoxicity (0.01976 µM) was -1.36 ± 0.064%, the LDH release cytotoxicity (0.0625 µM) was -1.93 ± 1.9% and the LDH release cytotoxicity (0.197642 µM) was -3.13 ± 1.1%. The LDH release cytotoxicity (0.625 µM) was -2.977 ± 0.0083%, the LDH release cytotoxicity (1.976424 µM) was -3.81 ± 0.63% and the LDH release cytotoxicity (6.25 µM) was -2.99 ± 0.55%. For the same compound, the LDH release cytotoxicity (19.7642 µM) was -1.84 ± 0.55% and the LDH release cytotoxicity (62.5 µM) was 19.8 ± 2.1%.

Compound `O=c1n(CC2CO2)c(=O)n(CC2CO2)c(=O)n1CC1CO1` (stereo not given) [Tris(2,3-epoxypropyl)isocyanurate] has an LDH release cytotoxicity (0.03162 µM) of 0.512 ± 0.2%, an LDH release cytotoxicity (0.1 µM) of 0.218 ± 0.46% and an LDH release cytotoxicity (0.3162278 µM) of 0.217 ± 0.89%. It also gave an LDH release cytotoxicity (1 µM) of 0.322 ± 0.34%, an LDH release cytotoxicity (3.16228 µM) of -0.576 ± 0.33% and an LDH release cytotoxicity (10 µM) of 0.383 ± 0.033%. For the same compound, the LDH release cytotoxicity (31.6228 µM) was 0.616 ± 0.68% and the LDH release cytotoxicity (100 µM) was 1.86 ± 0.47%.

With `Cc1ccc(N(C)C)cc1` [N,N,4-Trimethylaniline] the LDH release cytotoxicity (0.03162 µM) was -1.35 ± 0.18%, the LDH release cytotoxicity (0.1 µM) was -2.34 ± 0.1% and the LDH release cytotoxicity (0.3162278 µM) was -1.31 ± 0.2%. For the same compound, the LDH release cytotoxicity (1 µM) was -1.01 ± 0.47%, the LDH release cytotoxicity (3.16228 µM) was -1.56 ± 1.1% and the LDH release cytotoxicity (10 µM) was -0.631 ± 0.84%. For the same compound, the LDH release cytotoxicity (31.6228 µM) was 0.0145 ± 0.88% and the LDH release cytotoxicity (100 µM) was 1.9 ± 0.59%.

`O=C1c2ccccc2C(=O)N1CCc1noc(-c2ccc(CN3CCCCCC3)s2)n1` gave an LDH release cytotoxicity (0.026721 µM) of 1.83 ± 0.47%, an LDH release cytotoxicity (0.0845 µM) of -0.403 ± 0.25% and an LDH release cytotoxicity (0.267212 µM) of -0.399 ± 0.032%. For the same compound, the LDH release cytotoxicity (0.845 µM) was -0.205 ± 0.38%, the LDH release cytotoxicity (2.67212 µM) was -7.752 ± 0.013% and the LDH release cytotoxicity (8.45 µM) was 7.6 ± 1.2%. For the same compound, the LDH release cytotoxicity (26.7213 µM) was 1.47 ± 2.3% and the LDH release cytotoxicity (84.5 µM) was -1.5 ± 0.19%.

In the case of `CCC12COCN1COC2` [7a-Ethyldihydro-1H,3H,5H-oxazolo(3,4-c)oxazole], the LDH release cytotoxicity (0.03162 µM) is reported as -1.45 ± 0.8%, the LDH release cytotoxicity (0.1 µM) is reported as -1.96 ± 0.61% and the LDH release cytotoxicity (0.3162278 µM) is reported as -1.68 ± 0.1%. It also gave an LDH release cytotoxicity (1 µM) of -1.43 ± 1.1%, an LDH release cytotoxicity (3.16228 µM) of -1.46 ± 0.12% and an LDH release cytotoxicity (10 µM) of -1.34 ± 0.19%. For the same compound, the LDH release cytotoxicity (31.6228 µM) was 0.0307 ± 0.78% and the LDH release cytotoxicity (100 µM) was 0.471 ± 1.6%.

Compound `CCCSP(=O)(OCC)Oc1ccc(Br)cc1Cl` (stereo not given) [Profenofos] has an LDH release cytotoxicity (0.01581 µM) of -6.81 ± 0.41%, an LDH release cytotoxicity (0.05 µM) of -6.73 ± 0.81% and an LDH release cytotoxicity (0.1581139 µM) of -6.46 ± 0.68%. The LDH release cytotoxicity (0.5 µM) was -6.51 ± 0.86%, the LDH release cytotoxicity (1.5811388 µM) was -6.7 ± 1.5% and the LDH release cytotoxicity (5 µM) was -7.47 ± 0.58%. For the same compound, the LDH release cytotoxicity (15.8114 µM) was -7.49 ± 1.1% and the LDH release cytotoxicity (50 µM) was -6.78 ± 0.14%.

With `COP(=S)(OC)Oc1ccc(SC)c(C)c1` [Fenthion] the LDH release cytotoxicity (0.03162 µM) was -0.428 ± 0.68%, the LDH release cytotoxicity (0.1 µM) was -0.733 ± 0.38% and the LDH release cytotoxicity (0.3162278 µM) was -0.879 ± 0.25%. The LDH release cytotoxicity (1 µM) was -0.217 ± 1%, the LDH release cytotoxicity (3.16228 µM) was -0.561 ± 0.56% and the LDH release cytotoxicity (10 µM) was 0.173 ± 0.094%. For the same compound, the LDH release cytotoxicity (31.6228 µM) was 0.52 ± 0.028% and the LDH release cytotoxicity (100 µM) was 2.37 ± 0.83%.

Compound `O=P(Oc1ccccc1)(Oc1ccccc1)Oc1ccccc1` [Triphenyl phosphate] has an LDH release cytotoxicity (0.03162 µM) of 0.948 ± 2%, an LDH release cytotoxicity (0.1 µM) of -1.27 ± 1.3% and an LDH release cytotoxicity (0.3162278 µM) of -1.47 ± 0.34%. It also gave an LDH release cytotoxicity (1 µM) of -1.41 ± 0.43%, an LDH release cytotoxicity (3.16228 µM) of -0.353 ± 0.53% and an LDH release cytotoxicity (10 µM) of 0.138 ± 0.49%. The LDH release cytotoxicity (31.6228 µM) was 2.03 ± 0.5% and the LDH release cytotoxicity (100 µM) was 27.1 ± 4.3%.

For `NC(=O)N(O)C1COc2cc(OCc3ccccc3)ccc21` (stereo not given), the LDH release cytotoxicity (0.02846 µM) was -1.76 ± 0.2%, the LDH release cytotoxicity (0.09 µM) was -2.99 ± 1.7% and the LDH release cytotoxicity (0.284605 µM) was -1.03 ± 1.1%. The LDH release cytotoxicity (0.9 µM) was -2.27 ± 0.15%, the LDH release cytotoxicity (2.84605 µM) was -0.514 ± 0.72% and the LDH release cytotoxicity (9 µM) was 0.238 ± 0.36%. For the same compound, the LDH release cytotoxicity (28.4605 µM) was 3.46 ± 0.72% and the LDH release cytotoxicity (90 µM) was 22.46 ± 0.1%.

With `c1ccc(-c2ccccc2)cc1` [Biphenyl] the LDH release cytotoxicity (0.03162 µM) was -3.64 ± 0.49%, the LDH release cytotoxicity (0.1 µM) was -2.69 ± 0.98% and the LDH release cytotoxicity (0.3162278 µM) was -2.88 ± 0.12%. It also gave an LDH release cytotoxicity (1 µM) of -2.22 ± 0.45%, an LDH release cytotoxicity (3.16228 µM) of -2.07 ± 0.53% and an LDH release cytotoxicity (10 µM) of -1.35 ± 0.15%. For the same compound, the LDH release cytotoxicity (31.6228 µM) was -1.49 ± 0.43% and the LDH release cytotoxicity (100 µM) was 0.572 ± 0.68%.

`[Cl][Hg][Cl]` [Mercuric chloride] gave an LDH release cytotoxicity (0.03162 µM) of -0.633 ± 0.43%, an LDH release cytotoxicity (0.1 µM) of 0.0218 ± 0.9% and an LDH release cytotoxicity (0.3162278 µM) of -0.338 ± 0.41%. It also gave an LDH release cytotoxicity (1 µM) of -0.378 ± 0.19%, an LDH release cytotoxicity (3.16228 µM) of 0.165 ± 0.14% and an LDH release cytotoxicity (10 µM) of -0.398 ± 0.26%. The LDH release cytotoxicity (31.6228 µM) was -1.52 ± 0.15% and the LDH release cytotoxicity (100 µM) was -4.6 ± 0.1%.

In the case of `CC(=O)OC1CC(C)OC(C)O1` (stereo not given) [Dimethoxane], the LDH release cytotoxicity (0.03162 µM) is reported as -0.261 ± 1.2%, the LDH release cytotoxicity (0.1 µM) is reported as -0.746 ± 0.9% and the LDH release cytotoxicity (0.3162278 µM) is reported as -1.64 ± 0.38%. The LDH release cytotoxicity (1 µM) was -1.54 ± 0.41%, the LDH release cytotoxicity (3.16228 µM) was -1.77 ± 0.27% and the LDH release cytotoxicity (10 µM) was -1.72 ± 0.61%. It also gave an LDH release cytotoxicity (31.6228 µM) of -1.51 ± 0.86% and an LDH release cytotoxicity (100 µM) of 4.58 ± 1.8%.

For `O=[Si]=O` [Silica], the LDH release cytotoxicity (0.03162 µM) was -1.16 ± 0.54%, the LDH release cytotoxicity (0.1 µM) was -1.07 ± 0.26% and the LDH release cytotoxicity (0.3162278 µM) was -1.23 ± 0.016%. The LDH release cytotoxicity (1 µM) was -0.971 ± 0.66%, the LDH release cytotoxicity (3.16228 µM) was -1.72 ± 0.45% and the LDH release cytotoxicity (10 µM) was -1.27 ± 0.37%. For the same compound, the LDH release cytotoxicity (31.6228 µM) was -0.861 ± 1% and the LDH release cytotoxicity (100 µM) was 0.501 ± 1.1%.
